Patent publication US6384249B1, “Compounds and methods for stabilization of furfural compositions” (Hercules, Inc., priority 2000, dated 2002)
“And” between values parts separate entries of the source, which are not always exact repeats. Equal values may be shown once.

Assay: Accelerated air oxidation of furfural, Total Acid Number (TAN) by potentiometric titration
Settings: 25 psig air, 300° F., 2 hours
Experimental: In this example, distilled furfural was treated with prospective stabilizers, over-pressured with 25 psig of air, heated to 300° F., and held at temperature for 2 hours to allow for an accelerated rate of furfural oxidation. Total Acid Number (TAN) titrations were then conducted by potentiometric titration on the treated furfural samples, an untreated (blank), and a sample of the original distilled material (control), which was not heated to 300° F. The acid number, expressed as mg KOH/g, is a measure of the acid generated during air oxidation of furfural. Performance of inhibitors was expressed as a percent inhibition by the following equation: […]

Structure (SMILES) | % Inhibition @ ppmA (250 ppmA stabilizer) [%] | % Inhibition @ ppmA (500 ppmA stabilizer) | % Inhibition @ ppmA (1000 ppmA stabilizer) | % Inhibition @ ppmA (2000 ppmA stabilizer) [%]
CCC(C)CC(C)Nc1ccc(Nc2ccccc2)cc1 (stereo not shown) [Compound #2] | 15 | 37% | 56% | 
CCC(C)Nc1ccc(NC(C)CC)cc1 (stereo not shown) [Compound #1] | 69 | 106% and 114% | 88% and 170% | 57
CC(C)CC(C)N=C1C=CC(=Nc2ccccc2)C=C1 (stereo not shown) [Compound #4] | 48 | 76% | 95% | 
Cc1cc(C(C)(C)C)c(O)c(C(C)(C)C)c1 [Compound #3, 2,6-di-tert-butyl-4-methylphenol] | −10 | −5% | 12% | 
